Square brackets hold non-standard residues; d marks the D form. Ends that are not written are not given here. Nle = CCCC[C@H](N)C(=O)O; Sar = CNCC(=O)O
Assays:
[1] = biological target: T1, angiotensin-II receptor (Homo sapiens, UniProt P30556); assay: angiotensin-II receptor binding, radioiodinated angiotensin II ligand, membranes of human neuroblastoma cells (KAN-TS); settings: for % Inhibition at 1 µM: KAN-TS cell membranes, 125I-Tyr4, Sar1, Ile8-Angiotensin II
T1 construct: cell membranes obtained from human neuroblastoma cells (KAN-TS); endogenous in cells; host or cells: KAN-TS human neuroblastoma cells (membranes)
T1 sequence (P30556 1-359): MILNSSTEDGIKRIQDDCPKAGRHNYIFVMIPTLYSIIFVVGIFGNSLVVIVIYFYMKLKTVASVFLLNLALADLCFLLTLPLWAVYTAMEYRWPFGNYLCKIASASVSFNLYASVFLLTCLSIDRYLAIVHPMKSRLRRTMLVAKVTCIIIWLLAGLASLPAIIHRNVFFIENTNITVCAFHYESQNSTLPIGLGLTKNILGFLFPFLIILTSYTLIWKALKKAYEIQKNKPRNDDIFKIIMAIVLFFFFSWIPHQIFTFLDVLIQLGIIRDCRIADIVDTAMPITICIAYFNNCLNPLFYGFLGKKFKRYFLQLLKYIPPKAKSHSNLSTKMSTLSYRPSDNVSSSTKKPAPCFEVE
Protocol: The screening of compounds for binding to the angiotensin-II receptor was performed using cell membranes obtained from human neuroblastoma cells (KAN-TS). The assay was performed in triplicates, generally as described in Example 4 for oxytocin, except for measurement of receptor bound radioactivity. For angiotensin, a radioiodinated tracer ligand was used (instead of a tritiated ligand), which radioiodinated tracer facilitated direct measurement of bound radioactivity using a gamma counter. A final 1-3 nM concentration of ^125I-Tyr^4, Sar^1, Ile^8-Angiotensin II ligand (obtained from Perkin Elemer - NEN Life Sciences) was used as radiotracer and angiotensin-II (1 µM final assay concentration) was used to measure non-specific binding. After filtration of the incubation medium, followed by washings, drying the filters and punching the filters into test tubes, the filters were counted for radioactivity in a gamma counter. An activity profile for the test compounds was generated by ability to inhibit specific binding of the radiotracer to its receptor.

[2] = biological target: T2, MC1-R (Mus musculus, UniProt Q01727); assay: competitive inhibition binding assay with 125I-NDP-alpha-MSH, B-16 mouse melanoma cell membranes; settings: for % Inhibition at 1 µM MC-1: 0.4 nM 125I-NDP-alpha-MSH, B-16 mouse melanoma cell membranes, mean of triplicate; for receptor specificity MCR-1 versus MCR-4: conclusion from Table 2
T2 construct: B-16 mouse melanoma cells (containing MC1-R); endogenous in cells; host or cells: B-16 mouse melanoma cells (membranes)
Protocol: (§1) Ac-Nle-Ala-His-D-Phe-Arg-Trp-NH2 is a known receptor-binding sequence for melanotropin receptors. The K, values for binding to MCR-1 and -4 were measured to be 0.1 µM and 2 µM respectively. A series of metallopeptides based on this sequence were synthesized by inserting a Cys residue after the 2 position and through the n+1 position and complexing the resulting Cys-containing peptide with an Re-oxo metal ion core as described Example 1. The resulting metallopeptides were screened for inhibiting the binding of 125-I-NDP-alpha-MSH radioligand using B-16 mouse melanoma cells for MCR-1 and cloned human MCR-[…] and -4 receptor transfected 293 cells.
(§2) The competitive inhibition binding assay was conducted using membranes prepared from hMC3-R, hMC4-R, hMC5-R, and B-16 mouse melanoma cells (containing MC1-R) using 0.4 nM ^125I-NDP-alpha-MSH (New England Nuclear, Boston, MA, USA) in 50 mM HEPES buffer containing 1 mM MgCl2, 2 mM CaCl2, and 5 mM KCI, at pH 7.2. The assay tube also contained a chosen concentration of the test peptide of this invention, complexed to a rhenium metal ion as indicated, for determining its efficacy in inhibiting the binding of ^125I-NDP-alpha-MSH to its receptor. Non-specific binding was measured by complete inhibition of binding of ^125I-NDP-alpha-MSH in the assay with the presence of 1 µM alpha-MSH. Incubation was for 90 minutes at room temperature, after which the assay mixture was filtered and the membranes washed three times with ice cold buffer. The filter was dried and counted in a gamma counter for remaining radioactivity bound to the membranes. 100% specific binding was defined as the difference in radioactivity (cpm) bound to cell membranes in the absence and presence of 1 µM alpha-MSH. The cpm obtained in presence of test compounds were normalized with respect to 100% specific binding to determine the percent inhibition of ^125I-NDP-alpha MSH binding. Each assay was conducted in triplicate and the actual mean valves are described in Table 2.

[3] = biological target: T3, hMC3-R (Homo sapiens, UniProt P41968); assay: competitive inhibition binding assay with 125I-NDP-alpha-MSH, hMC3-R membranes; settings: 0.4 nM 125I-NDP-alpha-MSH, mean of triplicate
T3 construct: expressed in transfected cells; host or cells: 293 cells
Protocol: as §1, §2

[4] = biological target: T4, hMC4-R (Homo sapiens, UniProt P32245); assay: competitive inhibition binding assay with 125I-NDP-alpha-MSH, hMC4-R membranes; settings: 0.4 nM 125I-NDP-alpha-MSH, mean of triplicate
T4 construct: expressed in transfected cells; host or cells: 293 cells
Protocol: as §1, §2

[5] = biological target: T5, hMC5-R (Homo sapiens, UniProt P33032); assay: competitive inhibition binding assay with 125I-NDP-alpha-MSH, hMC5-R membranes; settings: 0.4 nM 125I-NDP-alpha-MSH, mean of triplicate
T5 construct: expressed in transfected cells; host or cells: 293 cells are named only for 'MCR-2, -3 and -4'; for MC5-R the host is inferred
Protocol: as §2

[6] = biological target: T6, uPA receptor (Homo sapiens, UniProt Q03405); assay: uPA receptor-binding assay using U937 cells and ATF as competitive ligand; settings: 1 µM metallopeptide; U937 cells; ATF as competitive receptor binding ligand
T6 construct: endogenous in cells; host or cells: U937 cells
T6 sequence (Q03405 23-335): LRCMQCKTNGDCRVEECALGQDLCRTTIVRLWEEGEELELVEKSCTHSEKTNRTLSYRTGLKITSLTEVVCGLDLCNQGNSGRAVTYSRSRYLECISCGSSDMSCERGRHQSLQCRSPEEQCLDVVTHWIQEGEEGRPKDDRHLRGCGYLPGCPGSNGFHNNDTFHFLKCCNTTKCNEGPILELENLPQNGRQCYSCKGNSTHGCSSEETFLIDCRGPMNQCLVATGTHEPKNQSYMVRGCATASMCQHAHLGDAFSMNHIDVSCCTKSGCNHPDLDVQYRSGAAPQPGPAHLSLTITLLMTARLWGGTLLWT

T5 sequence (P33032 whole entry): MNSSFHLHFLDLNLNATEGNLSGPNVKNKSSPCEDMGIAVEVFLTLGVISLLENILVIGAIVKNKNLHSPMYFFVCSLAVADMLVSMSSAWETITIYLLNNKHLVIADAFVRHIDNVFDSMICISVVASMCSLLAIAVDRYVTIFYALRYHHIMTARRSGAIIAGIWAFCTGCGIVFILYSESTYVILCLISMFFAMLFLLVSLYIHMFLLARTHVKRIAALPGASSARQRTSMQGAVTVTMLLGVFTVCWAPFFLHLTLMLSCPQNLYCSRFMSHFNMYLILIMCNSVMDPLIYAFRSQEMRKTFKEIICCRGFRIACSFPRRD
T2 sequence (Q01727 whole entry): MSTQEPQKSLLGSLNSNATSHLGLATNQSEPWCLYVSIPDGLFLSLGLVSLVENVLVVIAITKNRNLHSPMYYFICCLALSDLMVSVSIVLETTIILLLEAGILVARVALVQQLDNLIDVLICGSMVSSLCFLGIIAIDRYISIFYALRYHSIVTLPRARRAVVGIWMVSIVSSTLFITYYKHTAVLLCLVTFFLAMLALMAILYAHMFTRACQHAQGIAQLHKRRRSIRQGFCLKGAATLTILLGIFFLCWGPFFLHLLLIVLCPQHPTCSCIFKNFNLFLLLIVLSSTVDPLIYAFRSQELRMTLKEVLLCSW
T4 sequence (P32245 whole entry): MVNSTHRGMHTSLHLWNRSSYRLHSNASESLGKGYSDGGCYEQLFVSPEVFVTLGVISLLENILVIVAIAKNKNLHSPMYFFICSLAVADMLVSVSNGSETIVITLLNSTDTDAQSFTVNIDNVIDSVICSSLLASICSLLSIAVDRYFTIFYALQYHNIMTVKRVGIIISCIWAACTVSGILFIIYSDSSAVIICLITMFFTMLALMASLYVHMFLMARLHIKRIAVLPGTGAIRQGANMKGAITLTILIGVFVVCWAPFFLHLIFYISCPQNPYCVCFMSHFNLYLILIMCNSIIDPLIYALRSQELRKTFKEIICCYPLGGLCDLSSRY
T3 sequence (P41968 whole entry): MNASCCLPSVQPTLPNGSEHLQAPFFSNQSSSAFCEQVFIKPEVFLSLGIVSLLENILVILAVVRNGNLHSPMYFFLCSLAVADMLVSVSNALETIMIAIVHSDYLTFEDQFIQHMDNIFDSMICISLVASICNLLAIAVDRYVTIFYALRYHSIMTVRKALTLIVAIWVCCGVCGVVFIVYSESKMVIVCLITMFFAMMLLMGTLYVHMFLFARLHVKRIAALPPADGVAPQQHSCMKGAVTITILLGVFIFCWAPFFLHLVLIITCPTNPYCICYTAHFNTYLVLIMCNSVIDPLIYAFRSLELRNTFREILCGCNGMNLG

Substance | % Inhibition at 1 µM [1] | % Inhibition at 1 µM MC-1 [2] | % Inhibition at 1 µM MC-3 [3] | % Inhibition at 1 µM MC-4 [4] | % Inhibition at 1 µM MC-5 [5] | further results
Sar-Arg-Val-Tyr-Cys-Ile-His-Pro-Thr ([Sar]RVYCIHPT; not fully specified (bridges); printed as Sar-Arg-Val-Tyr-Cys-Ile-His-Pro-Thr; also: oxorhenium(V) metal complex) [SEQ ID NO:163] | 12% |  |  |  |  | 
Sar-Arg-Val-Tyr-Ile-His-Cys-Gly-Thr ([Sar]RVYIHCGT; not fully specified (bridges); printed as Sar-Arg-Val-Tyr-Ile-His-Cys-Gly-Thr; also: oxorhenium(V) metal complex) [SEQ ID NO:166] | 11% |  |  |  |  | percent inhibition compared with SEQ ID NO:161 ([1]; Gly substituted for Pro): significantly less
Sar-Arg-Val-Cys-Tyr-Ile-His-Pro-Thr ([Sar]RVCYIHPT; not fully specified (bridges); printed as Sar-Arg-Val-Cys-Tyr-Ile-His-Pro-Thr; also: oxorhenium(V) metal complex) [SEQ ID NO:164] | 1% |  |  |  |  | 
Ac-[Nle]AH[dF]RWC-NH2 |  | 91% | 70% | 98% | 93% | receptor specificity MCR-1 versus MCR-4 [2]: binding both the MCR-1 and MCR-4 receptors
Ac-[Nle]ACH[dF]RW-NH2 |  | 96% | 47% | 71% | 64% | 
Ac-[Nle]AH[dF]CRW-NH2 |  | 93% | 15% | 66% | 57% | 
Sar-Arg-Val-Tyr-Ile-His-Gly-Cys-Thr ([Sar]RVYIHGCT; not fully specified (bridges); printed as Sar-Arg-Val-Tyr-Ile-His-Gly-Cys-Thr; also: oxorhenium(V) metal complex) [SEQ ID NO:160] | 5% |  |  |  |  | 
Sar-Arg-Val-Tyr-Ile-His-Cys-Pro-Thr ([Sar]RVYIHCPT; not fully specified (bridges); printed as Sar-Arg-Val-Tyr-Ile-His-Cys-Pro-Thr; also: oxorhenium(V) metal complex) [SEQ ID NO:161] | 60% |  |  |  |  | 
Sar-Arg-Val-Tyr-Ile-Cys-His-Pro-Thr ([Sar]RVYICHPT; not fully specified (bridges); printed as Sar-Arg-Val-Tyr-Ile-Cys-His-Pro-Thr; also: oxorhenium(V) metal complex) [SEQ ID NO:162] | 20% |  |  |  |  | 
Ac-Val-Ser-Asn-Cys-Lys-Tyr-Phe-Ser-Asn-Ile-His-Trp-NH2 (Ac-VSNCKYFSNIHW-NH2; not fully specified (bridges); printed as Ac-Val-Ser-Asn-Cys-Lys-Tyr-Phe-Ser-Asn-Ile-His-Trp-NH2; also: oxorhenium(V) N3S1 metal chelate (X-X-Cys)) [SEQ ID NO:5] |  |  |  |  |  | % Inhibition at 1 µM [6]: 0.0%
Ac-[Nle]AH[dF]RCW-NH2 |  | 96% | 0% | 17% | 0% | receptor specificity MCR-1 versus MCR-4 [2]: specific for the MCR-1 receptor but not the MCR-4 receptor
Ac-Val-Ser-Asn-Lys-Tyr-Phe-Ser-Asn-lie-His-Trp-Cys-NH2 [SEQ ID NO:12] |  |  |  |  |  | % Inhibition at 1 µM [6]: 0.0%
Ac-[Nle]AHC[dF]RW-NH2 |  | 84% | 9% | 75% | 58% | 
Sar-Arg-Cys-Val-Tyr-Ile-His-Pro-Thr ([Sar]RCVYIHPT; not fully specified (bridges); printed as Sar-Arg-Cys-Val-Tyr-Ile-His-Pro-Thr; also: oxorhenium(V) metal complex) [SEQ ID NO:165] | 1% |  |  |  |  | 
Ac-Val-Ser-Asn-Lys-Tyr-Phe-Cys-Ser-Asn-Ile-His-Trp-NH2 (Ac-VSNKYFCSNIHW-NH2; not fully specified (bridges); printed as Ac-Val-Ser-Asn-Lys-Tyr-Phe-Cys-Ser-Asn-Ile-His-Trp-NH2; also: oxorhenium(V) N3S1 metal chelate (X-X-Cys)) [SEQ ID NO:8] |  |  |  |  |  | % Inhibition at 1 µM [6]: 0.0%
Ac-Val-Ser-Asn-Lys-Tyr-Phe-Ser-Cys-Asn-Ile-His-Trp-NH2 (Ac-VSNKYFSCNIHW-NH2; not fully specified (bridges); printed as Ac-Val-Ser-Asn-Lys-Tyr-Phe-Ser-Cys-Asn-Ile-His-Trp-NH2; also: oxorhenium(V) N3S1 metal chelate (X-X-Cys)) [SEQ ID NO:9] |  |  |  |  |  | % Inhibition at 1 µM [6]: 35.0%
